{"source": "patent US6613506B1", "about": "“Compositions and methods for inhibiting human immunodeficiency virus infection by down-regulating human cellular genes” (Subsidiary No. 3, Inc., priority 2000, dated 2003)", "key": {"[1]": {"test_system": "HIV-1SF33", "test": "Productive infection of activated human PBLs with HIV-1SF33, flow cytometry of CD3+ T cells", "type": "cell-based", "conditions": "for % CD4^+ in population / % p24+ cells among CD4+ T cells: HIV +, day 6; for % CD4^+ in population: CD3+ T cells of human PBLs; for % p24+ cells among CD4+ T cells: human PBLs", "description": "(§1) Human peripheral blood leukocytes (PBLs) were isolated using Ficoll-Hypaque density gradient separation. Cells were washed twice and resuspended in RPMI+10% FBS+2% human AB serum+penicillin/streptomycin/glutamine+100 Units/mL of IL-2 at a concentration of 0.5×10^6 cells/mL. PBLs were then activated with phytohemagglutinin at 0.5 μg/mL and placed in a humidified incubator at 37° C./5% CO2. After two days of activation, 10^6 cells were infected with HIV-1SF33 at TCID50 of 1000, in the presence of various concentrations of mofarotene: 0 μM, 1 μM, 0.5 μM, 0.1 μM, and 0.05 μM. A separate set of uninfected samples under identical concentrations of mofarotene were also maintained as controls. The samples were analyzed by flow cytometry at day 4 and day 6 post infection. The cells were gated for CD3 expression (for T cells). Then the expression of CD4 and viral p24 and CD4 was examined by bivariate dot plot.\nIn order to test the ability of a NADH dehydrogenase inhibitor to prevent productive infection of T cells by HIV, human PBLs were isolated and infected with HIVSF33 in the presence of various concentrations of mofarotene."}, "[2]": {"test_system": "human peripheral blood leukocytes (PBLs)", "test": "Uninfected human PBL controls with mofarotene alone (CD4, p24, CD3)", "type": "cell-based", "conditions": "for % CD4^+ in population / % p24^− in CD4^− T population: HIV −; for % CD4^+ in population: CD3+ T cells of human PBLs; for % p24^− in CD4^− T population: human PBLs", "description": "as §1"}, "[3]": {"test_system": "latent HIV provirus in OM10.1 cells", "test": "Induction of latent HIV provirus by TNF-α in OM10.1 cells (CD4 retention, p24)", "type": "cell-based, HIV-1", "description": "In order to determine p24 expression in HIV-infected cells, the cells were first washed twice with Assay Buffer. About 10^6 cells were suspended in 100 μL Assay Buffer, mixed with 2 mL of Ortho PermeaFix Solution (available from Ortho Diagnostics), and incubated for 40 min. at room temperature. After centrifugation at 1200 rpm for 4 min. at 4EC, the cells were resuspended in 2 mL Wash Buffer (500 mL PBS, 25 mL fetal bovine serum, 1.5% bovine serum albumin and 0.0055% EDTA) for 10 min. at room temperature. After centrifugation, the cells were resuspended in 50 ΦL Wash Buffer and mixed with 1:500 dilution of an IgG2a antibody for 20 min. at 4EC, followed by incubation with 5-10 ΦL of anti-p24 antibody (KC57-FITC, available from Coulter) for 30 min. at 4EC. The cells were then washed twice with Wash Buffer and analyzed by flow cytometry.\nOne strategy selected for GSEs which suppressed productive infection of cells by HIV. The second strategy selected for GSEs which suppressed induction of the latent provirus in OM10.1 cells. When OM10.1 cells were treated with TNF-α and stained with an antibody specific for the cell surface molecule CD4, a rapid loss of CD4 expression was observed (FIG. 1). In contrast, the vast majority of the uninduced OM10.1 cells retained CD4 expression. It is believed that activation of the latent virus in OM10.1 cells by TNF-α leads to the production of viral protein gp120, which binds to cytoplasmic CD4, thereby preventing its translocation to the cell surface. A diminution of CD4^+ OM10.1 cells also correlates with an increased production of viral protein p24 in the cells following TNF-α induction.\nOM10.1 cells were cultured in RPMI 1640 glucose-free media prior to and during incubation with NADH dehydrogenase inhibitors and TNF-á induction. The inhibitors were added to the cells followed by TNF-á induction 1-2 hours later. The expression of CD4 by the cells was assessed by anti-CD4 antibody staining and flow cytometry after 24 hour incubation at 37° C."}, "[4]": {"test_system": "OM10.1 cells", "type": "cell-based", "conditions": "human, 24 h, 100 nM"}}}
{"compound": "C/C(=C\\c1ccc(OCCN2CCOCC2)cc1)c1ccc2c(c1)C(C)(C)CCC2(C)C", "note": "[mofarotene, Mofarotene]", "values": [{"measurement": "% CD4^+ in population", "setting": "[1]; mofarotene 0.05 μM", "result": 18, "unit": "%"}, {"measurement": "% p24+ cells among CD4+ T cells", "setting": "[1]; mofarotene 0.05 μM", "result": 20.5, "unit": "%"}, {"measurement": "% CD4^+ in population", "setting": "[1]; mofarotene 0.1 μM", "result": 28, "unit": "%"}, {"measurement": "% p24+ cells among CD4+ T cells", "setting": "[1]; mofarotene 0.1 μM", "result": 11.4, "unit": "%"}, {"measurement": "% CD4^+ in population", "setting": "[1]; mofarotene 0.5 μM", "result": 24, "unit": "%"}, {"measurement": "% p24+ cells among CD4+ T cells", "setting": "[1]; mofarotene 0.5 μM", "result": 12.5, "unit": "%"}, {"measurement": "% CD4^+ in population", "setting": "[1]; mofarotene 1.0 μM", "result": 25, "unit": "%"}, {"measurement": "% p24+ cells among CD4+ T cells", "setting": "[1]; mofarotene 1.0 μM", "result": 10, "unit": "%"}, {"measurement": "% p24+ cells among CD4+ T cells", "setting": "[1]; mofarotene 1.0 μM, listed as Mofarotene", "result": 10, "unit": "%"}, {"measurement": "difference between HIV-infected PBLs with or without mofarotene", "setting": "[1]; day 4 post-infection", "result": "little detectable difference"}, {"measurement": "depletion of CD4^+ T cells by HIV infection", "setting": "[1]; day 6, 1 μM mofarotene", "result": "inhibited the depletion of CD4^+ T cells by HIV infection"}, {"measurement": "level of protection (percentage of p24+ CD4+ T cells and of CD4+ cells in CD3+ T cells) versus concentration", "setting": "[1]; day 6, 1 to 0.05 μM", "result": "diminished with decreased concentrations of mofarotene"}, {"measurement": "% CD4^+ in population", "setting": "[2]; mofarotene 0.05 μM, day 6", "result": 33, "unit": "%"}, {"measurement": "% p24^− in CD4^− T population", "setting": "[2]; mofarotene 0.05 μM, day 6", "result": 0, "unit": "%"}, {"measurement": "% CD4^+ in population", "setting": "[2]; mofarotene 0.1 μM, day 6", "result": 34, "unit": "%"}, {"measurement": "% p24^− in CD4^− T population", "setting": "[2]; mofarotene 0.1 μM, day 6", "result": 0, "unit": "%"}, {"measurement": "% CD4^+ in population", "setting": "[2]; mofarotene 0.5 μM, day 6", "result": 34, "unit": "%"}, {"measurement": "% p24^− in CD4^− T population", "setting": "[2]; mofarotene 0.5 μM, day 6", "result": 0, "unit": "%"}, {"measurement": "% CD4^+ in population", "setting": "[2]; mofarotene 1.0 μM, day 6", "result": 36, "unit": "%"}, {"measurement": "% p24^− in CD4^− T population", "setting": "[2]; mofarotene 1.0 μM, day 6", "result": 0, "unit": "%"}, {"measurement": "expression level of CD3 on the cell surface", "setting": "[2]; day 4", "result": "nor did it alter the expression level of CD3 on the cell surface"}, {"measurement": "percentage of CD4^+ T cells, mofarotene alone", "setting": "[2]; day 4", "result": "did not significantly alter the percentage of CD4^+ T cells"}, {"measurement": "expression level of CD3 on the cell surface", "setting": "[2]; day 6", "result": "did not alter the expression level of CD3 on the cell surface"}, {"measurement": "increase of the percentage of CD4^+ T cells in uninfected samples by mofarotene alone", "setting": "[2]; day 6, uninfected samples", "result": "up to 4%"}, {"measurement": "cells that retained CD4 expression", "setting": "[3]; 100 nM of mofarotene, TNF-α-induced OM10.1 cells", "result": 80, "unit": "%"}, {"measurement": "inhibition of induction of latent HIV provirus (retention of CD4 expression)", "setting": "[3]; TNF-α-induced OM10.1 cells, 24 hour incubation, FIG. 5 / FIG. 6", "result": "inhibited HIV-1 induction at even lower concentrations"}, {"measurement": "intracellular p24 levels", "setting": "[3]; treated cells compared with untreated controls", "result": "suppressed intracellular p24 levels"}, {"measurement": "cells that remained viable", "setting": "[4]", "result": "greater than 80%"}]}
